Patent US20250049737A1, “Lauflumide and derivatives thereof for treating chronic fatigue syndrome and myalgic encephalomyelitis/chronic fatigue syndrome (ME/CFS)” (NLS Pharmaceutics AG, priority 2021, published 2025)
Entries after “also recorded” stand apart in the source; their conditions may differ.

Tests used:
[1] = tested on: Rat model of severe fatigue; test: Rat model of severe fatigue (sleep deprivation): recording of circadian locomotor activity; format: in vivo, Rats, Sprague-Dawley; conditions: for Difference of distance travelled between the dark phase and the light phase / Distance travelled during the 12-h dark phase / Distance travelled during the 12-h light phase / Total distance travelled during the full 24-h period: days 1, 2 and 3
Protocol: In the following example, Lauflumide is also called NLS-4.
Animals are individually housed in transparent polycarbonate cages (1354G Eurostandard Type IV cage, Tecniplast, Italy, 595×380×200 mm, floor area=1820 cm^2) filled with water (23±1° C.) to a height of 1.5 cm. A platform (5 cm height, 6.5 cm diameter) was located at the center of the cage. Animals can stay on the platform in order to stay dry but falls from it when it falls in deep sleep. […] During this period, animals were placed in a modified light/dark cycle with variable durations of the light and dark periods which change every day. This procedure is intended to disrupt the circadian rhythm.
The Sham group was housed in normal condition for the same period under a 12/12 h light/dark cycle.
After the end of the fatigue period, animals were placed in transparent polycarbonate cages (Type E, Iffa Credo, France, 450×300×200 mm, floor area=1032 cm^2), under a 12 h/12 h cycle. Cages were covered with a stainless steel grid in which food and a bottle are placed. A stainless steel removable divider separated food and water. The cages were placed in infrared photobeam detection systems (Acti-track, LSI Leticca, Panlab) allowing to record continuously the distance travelled in the cage. Locomotor activity was recorded continuously for 3 days. The test started at the beginning of the dark phase of the light/dark cycle.
Seventy-six animals were subjected to the fatigue procedure and to the tests as described above. Twelve animals (Sham group) were housed in standard condition.
(§1) After the end of the Fatigue procedure, animals were divided into 10 groups which received before tests (total: 3 administrations) a per-os (p.o., oral gavage) administration of: • Sham (no fatigue) group (N=12): Vehicle. • Control group (N=11): Vehicle. • Modafinil 32 (N=10): modafinil (32 mg/kg). • Modafinil 64 (N=10): modafinil (64 mg/kg). • Modafinil 128 (N=5): modafinil (128 mg/kg). • NLS-4 16 (N=5): NLS-4 (16 mg/kg). • NLS-4 32 (N=10): NLS-4 (32 mg/kg). • NLS-4 64 (N=10): NLS-4 (64 mg/kg). • NLS-4 128 (N=10): NLS-4 (128 mg/kg). • NLS-4 256 (N=5): NLS-4 (256 mg/kg).
Read-out: distance travelled during 24-h periods, 12-h dark and light periods and during 2-h periods.
Data are expressed as mean and standard error of mean (SEM).
Statistical analyses: Student's t test, repeated measure ANOVA.
A difference is considered statistically significant at p≤0.05.

[2] = Body weight during fatigue procedure and test period; format: in vivo, Rats, Sprague-Dawley; conditions: 32-128 mg/kg p.o.; test period
Protocol: FIG. 26 Body weight (in g; mean, SEM) before the beginning and during the fatigue procedure (F-D1-7) and during the test period (T-D1-D3+24 h).
Animals were weighed every day.
as §1

[3] = tested on: cocaine conditioned place preference; conditions: 128 mg/kg; rats; cited from earlier work
[4] = 32 mg/kg p.o., vs. Control (fatigue) group
[5] = 32 mg/kg p.o., vs. Sham (no fatigue) group
[6] = 64 mg/kg p.o., vs. Control (fatigue) group
[7] = 64 mg/kg p.o., vs. Sham (no fatigue) group
[8] = 128 mg/kg p.o., vs. Control (fatigue) group
[9] = 128 mg/kg p.o., vs. Sham (no fatigue) group

NC(=O)C[S+]([O-])C(c1ccccc1)c1ccccc1 (stereo not drawn) [Modafinil, reference compound]
Motor activity during the first 2-h periods following the dosing ([1]; 32 mg/kg p.o.): increased
Activity during the following 22 h ([1]; 32 mg/kg p.o., after the first 2-h period following dosing): few or no modification
Difference of distance travelled between the dark phase and the light phase [1, 4]: not significantly different
Distance travelled during the 12-h dark phase [1, 4]: not significantly different
Distance travelled during the 12-h light phase [1, 4]: not significantly different
Total distance travelled during the full 24-h period [1, 4]: not significantly different
Difference of distance travelled between the dark phase and the light phase [1, 5]: not lower than the Sham group on days 1 and 2 only
Distance travelled during the 12-h dark phase [1, 5]: lower than the Sham group during the dark phase on days 1 and 2 only
Distance travelled during the 12-h light phase [1, 5]: higher than the Sham group during the light phase on day 1 only
Total distance travelled during the full 24-h period [1, 5]: not significantly different
Motor activity during the first 2-h periods following the dosing ([1]; 64 mg/kg p.o.): increased
Difference of distance travelled between the dark phase and the light phase [1, 6]: higher; also recorded: increased
Distance travelled during the 12-h dark phase [1, 6]: higher
Distance travelled during the 12-h light phase [1, 6]: not significantly different
Total distance travelled during the full 24-h period [1, 6]: higher
Difference of distance travelled between the dark phase and the light phase [1, 7]: not significantly different
Distance travelled during the 12-h dark phase [1, 7]: not significantly different
Distance travelled during the 12-h light phase [1, 7]: not significantly different
Total distance travelled during the full 24-h period [1, 7]: not significantly different
Difference of distance travelled between the dark phase and the light phase [1, 8]: higher for the Modafinil 128 group than for the Control group on days 1 and 2 only; also recorded: increased
Distance travelled during the 12-h dark phase [1, 8]: higher for the Modafinil 128 group than for the Control group during the dark period on days 1 and 2 only
Distance travelled during the 12-h light phase [1, 8]: not significantly different
Total distance travelled during the full 24-h period [1, 8]: higher for the Modafinil 128 group than for the Control group on day 1 only
Distance travelled during the 12-h dark phase [1, 9]: increase the distance travelled in comparison with the Sham group during the dark phase on day 1
Total distance travelled during the full 24-h period [1, 9]: increase the distance travelled in comparison with the Sham group on day 1
Weight loss induced by the fatigue procedure [2]: not modified
Cocaine conditioned place preference following extinction [3]: strongly reinstated
